According to patent US11649245B2, “Cyclopropylamine compound as LSD1 inhibitor and use thereof” (HELIOEAST PHARMACEUTICAL CO., LTD., priority 2018, dated 2023):
Where a name gives a salt, the structure may show the parent alone.

System: human small cell lung cancer NCI-H1417 xenograft tumor model
Experiment: In vivo pharmacodynamic study on NCI-H1417 subcutaneous xenograft tumor in CB-17 SCID mice
Details: compound 6 hydrochloride 1.5 mg/kg oral once a day, cisplatin 1 mg/kg i.p. twice a week
Protocol: The purpose of the experiment was to evaluate the in vivo efficacy of the compounds of the present disclosure on subcutaneous xenograft tumor of human small cell lung cancer NCI-H1417 cells in a CB-17 SCID mouse model.
Human small cell lung cancer NCI-H1417 cells (ATCC) were cultured in vitro in a single layer, the culture conditions were RPMI-1640 culture medium supplemented with 10% fetal bovine serum, 37° C. 5% CO2. When the cell saturation reached 80%-90%, the cells were collected, counted, and inoculated.
0.2 mL of 10×10^6 NCI-H1417 cells were subcutaneously inoculated into the right back of each mouse (PBS: Matrigel=1:1). Group administration was started when the average volume reached 100-150 mm^3.
The vehicle used in the experiment was 0.5% methylcellulose solution, the preparation method was: 5 g of methylcellulose was weighed and dissolved in 800 mL ultrapure water, stirred evenly and made up to 1000 mL with ultrapure water. The test substance was dissolved in a solvent and prepared into a uniform solution of a certain concentration, and stored at 4° C.
Cisplatin (Cisplatin, manufacturer Qilu Pharmaceutical Co., Ltd., 10 mg/bottle freeze-dried powder for injection, lot number 7D011A8) was added to 10 mL 0.9% NaCl to make a 1 mg/mL mother liquor, and stored at room temperature and protected from light. The mother liquor was aliquoted into 0.63 mL and stored at room temperature. 5.67 mL 0.9% NaCl was added to one of the 0.63 mL mother liquor to make a 0.1 mg/mL solution.
The experimental indicator is to investigate whether tumor growth was inhibited, delayed, or cured. Tumor diameters were measured with a vernier caliper twice a week. The tumor volume was calculated by the calculation formula: V=0.5a×b^2, a and b respectively represent the long and short diameters of the tumor.
The anti-tumor effect of the compounds was evaluated by TGI (%). TGI (%) can reflect the tumor growth inhibition rate. TGI (%) calculation: TGI (%)=[1-(the average tumor volume at the end of the administration in a treatment group—the average tumor volume at the beginning of the administration in the treatment group)/(the average tumor volume at the end of the treatment of the solvent control group—the average tumor volume at the beginning of the treatment of the solvent control group)]×100%.

`O=C(O)c1ccc(CN2CCC3(CC2)CC(N[C@@H]2C[C@H]2c2ccccc2)CO3)cc1` (some centres unmarked) [Hydrochloride of the compound 6] was tested, and the “Tumor volume mean ± SEM (28th day)” value (CB-17 SCID mice) was 187 ± 14 mm^3 and the TGI (tumor growth inhibition rate, 28th day) was 79.2%.
